Test results: ChEMBL document CHEMBL4342426, “Structure-activity relationship of 4-azaindole-2-piperidine derivatives as agents against Trypanosoma cruzi” (Bioorg Med Chem Lett, 2020)

Tests used:
in vitro [1] = settings: human, liver microsomes
Description: Metabolic stability in human liver microsomes assessed as intrinsic clearance at 0.5 uM incubated for 30 mins by LC-MS/MS analysis

Trypanosoma brucei = test: microbe, parasite or virus in culture; settings: Squib 427, 72 h
Description: Antitrypanosomal activity against Trypanosoma brucei Squib 427 assessed as reduction in parasite growth incubated for 72 hrs by resazurin dye based fluorimetric analysis

in vitro [2] = settings: human, MRC5 SV2 cells
Description: Selectivity index, ratio of IC50 for human MRC5 SV2 cells to IC50 for Trypanosoma cruzi Tulahuen CL2 amastigotes infected in human MRC5 SV2 cells

in vitro [3] = settings: human, MRC5 SV2 cells; remark: listed apart in the source
Description: (§1) Cytotoxicity against human MRC5 SV2 cells assessed as reduction in cell viability incubated for 3 days by fluorimetry

Macrophage = test: cells; settings: Mus musculus, 72 h
Description: (§2) Cytotoxicity against mouse peritoneal Macrophage cells assessed as reduction in cell viability incubated for 3 days by fluorimetry

in vitro [4] = settings: mouse, liver microsomes
Description: Metabolic stability in mouse liver microsomes assessed as intrinsic clearance at 0.5 uM incubated for 30 mins by LC-MS/MS analysis

[5] = test system: Trypanosoma brucei rhodesiense; test: microbe, parasite or virus in culture; settings: STIB900, 72 h
Description: Antiprotozoal activity against Trypanosoma brucei rhodesiense STIB900 trypomastigotes incubated for 72 hrs by resazurin dye based fluorimetric analysis

in vitro [6] = settings: mouse, peritoneal macrophages
Description: Selectivity index, ratio of IC50 for mouse peritoneal macrophage to IC50 for Leishmania infantum MHOM/MA(BE)/67/ITMAP263 infected in mouse peritoneal macrophage

cells = settings: Homo sapiens, MRC-5 SV2, 72 h
Description: as §1

in vitro [7] = settings: mouse, peritoneal macrophages; remark: listed apart in the source
Description: as §2

Leishmania infantum = test: microbe, parasite or virus in culture; settings: for IC50: MHOM/MA(BE)/67/ITMAP263, 120 h; for IC90: MHOM/MA(BE)/67/ITMAP263, in Mus musculus, 120 h
Description: Antileishmanial activity against amastigote stage of Leishmania infantum MHOM/MA(BE)/67/ITMAP263 infected in mouse peritoneal macrophage assessed as parasite growth inhibition incubated for 5 days by Giemsa staining based assay

Trypanosoma cruzi = test: microbe, parasite or virus in culture; settings: Tulahuen CL2, MRC-5 SV2, 168 h
Description: Antitrypanosomal activity against Trypanosoma cruzi Tulahuen CL2 amastigotes infected in human MRC5 SV2 cells incubated for 7 days by chlorophenol red beta-D-galactopyranoside substrate based spectrophotometric assay

physchem = settings: buffer, pH 7.4
Description: Lipophilicity, logD of compound at pH 7.4 by HPLC analysis

in vitro [8] = settings: mouse, liver microsomes; remark: listed apart in the source
Description: Metabolic stability in mouse liver microsomes assessed as fraction unbound at 0.5 uM incubated for 30 mins by LC-MS/MS analysis

in vitro [9] = settings: human, MRC5 SV2 cells; remark: listed apart in the source
Description: Selectivity index, ratio of IC50 for human MRC5 SV2 cells to IC50 for Trypanosoma brucei rhodesiense STIB900 trypomastigotes

in vitro [10] = settings: PAMPA
Description: Effective permeability of compound by PAMPA assay

Structure (SMILES)	CLint scaled at 0.5 h, 0.5 µM (in vitro [1])	microsomal CLint at 0.5 h, 0.5 µM (in vitro [1])	IC50 (Trypanosoma brucei)	IC90 (Trypanosoma brucei)	IC90 at 72 h (in vitro [3])	IC50 (Macrophage)	CLint scaled at 0.5 h, 0.5 µM (in vitro [4])	microsomal CLint at 0.5 h, 0.5 µM (in vitro [4])	IC50 [5]	IC90 [5]	IC50 (cells)	IC90 at 72 h (in vitro [7])	IC50 (Leishmania infantum)	IC90 (Leishmania infantum)	IC50 (Trypanosoma cruzi)	IC90 (Trypanosoma cruzi)	logD (physchem)	fraction unbound at 0.5 h, 0.5 µM (in vitro [8])	selectivity ratio (in vitro [9])	Papp (in vitro [10])	other results
CC(C)c1cc(C(=O)N2CCCC(O)(c3cc4ncccc4[nH]3)C2)on1 (configuration not stated)	31 to 38.5 mL/min/kg	23 to 26.6 µL/min/mg	64 µM	64 µM	64 µM	64 µM	616 to 2560 mL/min/kg	155 to 600 µL/min/mg	51.8 to 64 µM	64 µM	56.5 to 64 µM	64 µM	49.3 to 64 µM	64 µM	8.35 to 58.5 µM	15.6 to 64 µM	2.26				selectivity ratio (in vitro [2]): 1.9; selectivity ratio (in vitro [6]): 1.14
O=C(c1ccc(F)cc1)N1CCCC(c2cc3nc(C(F)(F)F)ccc3[nH]2)C1 (configuration not stated)	118 mL/min/kg	77.6 µL/min/mg	64 µM	64 µM	64 µM	64 µM	1110 mL/min/kg	247 µL/min/mg	28.7 µM	57.5 µM	64 µM	64 µM	64 µM	64 µM	64 µM	64 µM	3.88	0.713	2.19	12.2 ×10⁻⁶ cm/s	
O=C(c1cc(C(F)(F)F)no1)N1CCCC(c2cc3ncc(Br)cc3[nH]2)C1 (configuration not stated)	193 mL/min/kg	87.8 µL/min/mg	64 µM	64 µM	64 µM	64 µM	2800 mL/min/kg	431 µL/min/mg	22.9 µM	62.7 µM	64 µM	64 µM	57 µM	64 µM	64 µM	64 µM	4.27	0.491	2.8	7.99 ×10⁻⁶ cm/s	
O=C(c1cc(C(F)(F)F)no1)N1CCCC(c2cc3ncccc3[nH]2)C1 (configuration not stated)	323 mL/min/kg	184 µL/min/mg	64 µM	64 µM	64 µM	64 µM	2330 mL/min/kg	449 µL/min/mg	40.4 µM	60.9 µM	64 µM	64 µM	64 µM	64 µM	4.08 µM	45.3 µM	3.42	0.615	1.61	3.45 ×10⁻⁶ cm/s	selectivity ratio (in vitro [2]): 15.7
CC(C)(C)c1cc(C(=O)N2CCCC(c3cc4ncccc4[nH]3)C2)on1 (configuration not stated)	321 mL/min/kg	177 µL/min/mg	64 µM	64 µM	64 µM	64 µM	2150 mL/min/kg	403 µL/min/mg	34.7 µM	64 µM	64 µM	64 µM	64 µM	64 µM	2.18 µM	64 µM	3.4	0.598	1.83	2.97 ×10⁻⁶ cm/s	selectivity ratio (in vitro [2]): 29.4
O=C(Nc1ccc(-c2cc3ncccc3[nH]2)cc1)c1ccccc1	≥ 105 mL/min/kg	97.5 µL/min/mg	64 µM	64 µM	64 µM	45.3 µM	≥ 597 mL/min/kg	187 µL/min/mg	44.6 µM	64 µM	64 µM	59.7 µM	45.6 µM	60.5 µM	25.2 µM	64 µM	3.86		1.45	0.545 ×10⁻⁶ cm/s	selectivity ratio (in vitro [2]): 2.54
O=C(Nc1cccc(-c2cc3ncccc3[nH]2)c1)c1ccccc1	≥ 392 mL/min/kg	363 µL/min/mg	64 µM	64 µM	64 µM	64 µM	≥ 1670 mL/min/kg	522 µL/min/mg	4.6 µM	23.7 µM	64 µM	64 µM	52.5 µM	64 µM	2.08 µM	3.8 µM	3.88		13.9	0.606 ×10⁻⁶ cm/s	selectivity ratio (in vitro [2]): 30.7
O=C(c1ccc(F)cc1)N1CCCC(c2cc3nc(Cl)ccc3[nH]2)C1 (configuration not stated)	125 mL/min/kg	78.4 µL/min/mg	64 µM	64 µM	64 µM	64 µM	1390 mL/min/kg	294 µL/min/mg	2.46 µM	15.1 µM	64 µM	64 µM	64 µM	64 µM	64 µM	64 µM	3.52	0.676	26	15 ×10⁻⁶ cm/s	
CCC(=O)N1CCCC(c2nc3ncc(Cl)cc3[nH]2)C1 (configuration not stated)	< 28.3 mL/min/kg	< 23 µL/min/mg	64 µM	64 µM	64 µM	64 µM	472 mL/min/kg	128 µL/min/mg	41.9 µM	64 µM	64 µM	64 µM	64 µM	64 µM	64 µM	64 µM	2.17	0.866	1.53	9.01 ×10⁻⁶ cm/s	
O=C(c1ccc(F)cc1)N1CCCC(c2cc3nc(N4CCCC4)ccc3[nH]2)C1 (configuration not stated)	92.5 mL/min/kg	50.1 µL/min/mg	43.4 µM	60.8 µM	64 µM	45.3 µM	1960 to 2410 mL/min/kg	441 to 444 µL/min/mg	8.03 µM	14.1 µM	48.7 µM	59.7 µM	41.8 µM	59.6 µM	8.33 µM	31 µM	3.45	0.586 to 0.722	6.07	0.152 to 0.228 ×10⁻⁶ cm/s	selectivity ratio (in vitro [2]): 5.86
